Assays:
[1] = Phagocytic activity was assessed in a carbon clearance assay and stimulation index was reported in male DDY mice at the dose of 1 mg/kg; Kt/Kc; assay type: functional
[2] = system: Mus musculus; assay: Phagocytic activity was assessed in a carbon clearance assay in male DDY mice at the dose of 0.1 mg/kg; assay type: functional, organism-based; parameters: dose 0.1 mg/kg
[3] = system: Mus musculus; assay: Antiinfectious effect against Escherichia coli 22 in ICR mice(10) at the dose of 0.1 mg/kg (i.p.) expressed as number of survivals; assay type: functional; conditions: route intraperitoneal
[4] = Phagocytic activity was assessed in a carbon clearance assay and stimulation index was reported in male DDY mice at the dose of 0.1 mg/kg; Kt/Kc; assay type: functional
[5] = organism: Cavia porcellus; assay: Ability to induce delayed-type hypersensitivity to egg albumin in Hartley guinea pigs at the dose of 1 ug/site; assay type: functional
[6] = system: Mus musculus; assay: Antiinfectious effect against Escherichia coli 22 in ICR mice(10) at the dose of 1 mg/kg (i.p.) expressed as number of survivals; assay type: functional; conditions: route intraperitoneal
[7] = system: Mus musculus; assay: Phagocytic activity was assessed in a carbon clearance assay in male DDY mice at the dose of 1 mg/kg; assay type: functional, organism-based; parameters: dose 1 mg/kg
[8] = organism: Mus musculus; assay: Tumor suppressive activity against meth-A fibrosarcoma in BALB/c mice(9) at the dose of 100 ug/site; assay type: functional
[9] = organism: Cavia porcellus; assay: Ability to induce delayed-type hypersensitivity to egg albumin in Hartley guinea pigs at the dose of 10 ug/site; assay type: functional; parameters: unit not given beside the values
[10] = system: Mus musculus; assay: Antiinfectious effect against Escherichia coli 22 in ICR mice(10) at the dose of 1 mg/kg (i.p.) expressed as survivals; assay type: functional; conditions: route intraperitoneal
[11] = system: Mus musculus; assay: Phagocytic activity was assessed in a carbon clearance assay in male DDY mice at the dose of 10 mg/kg; assay type: functional, organism-based; parameters: dose 10 mg/kg
[12] = Phagocytic activity was assessed in a carbon clearance assay and stimulation index was reported in male DDY mice at the dose of 10 mg/kg; Kt/Kc; assay type: functional
[13] = organism: Mus musculus; assay: Tumor suppressive activity against meth-A fibrosarcoma in BALB/c mice (10) at the dose of 100 ug/site; assay type: functional

Question: For `CCCCCCCCCCCCCCCCCC(=O)NC(CCC(=O)NC(CCCC(N)C(=O)O)C(=O)O)C(=O)O` (centres undefined), which Ratio [1] is on record?
Answer: Its Ratio is 2.4.

Question: And the K [2]?
Answer: The K was 0.032.

Question: What about the Survival [3] of the same compound?
Answer: The Survival was 7.

Question: And the Ratio [4]?
Answer: Its Ratio is 1.6.

Question: What about the Skin response [5] of the same compound?
Answer: Its Skin response is 1.7.

Question: What about the Survival [6] of the same compound?
Answer: The Survival was 8.

Question: And the K [7]?
Answer: The K was < 0.048.

Question: What about the Suppression [8] of the same compound?
Answer: The Suppression was 9.

Question: What about the Skin response [9] of the same compound?
Answer: Its Skin response is <3.1.

Question: Which results are given for `NC(CCCC(NC(=O)CCC(N)C(=O)O)C(=O)O)C(=O)O` (centres undefined)?
Answer: Ratio [1]: 1.1; Survival [10]: 4; K [11]: 0.058; Survival [3]: 4; Skin response [5]: 3.3; K [7]: 0.021; Ratio [12]: 2.9; Skin response [9]: 6.9

Question: Which Ratio [1] does the source give for `CCCCCCCC(=O)NC(CCC(=O)NC(CCCC(N)C(=O)O)C(=O)O)C(=O)O` (centres undefined) here?
Answer: Its Ratio is 2.4.

Question: And the K [2]?
Answer: Its K is 0.032.

Question: What about the Survival [3] of the same compound?
Answer: The Survival was 7.

Question: And the Ratio [4]?
Answer: The Ratio was 1.6.

Question: And the Skin response [5]?
Answer: The Skin response was 8.3.

Question: And the Survival [6]?
Answer: Its Survival is 6.

Question: What about the K [7] of the same compound?
Answer: The K was 0.048.

Question: And the Skin response [9]?
Answer: Its Skin response is 3.7.

Question: What does the source list for `CC(O)C(=O)NC(C)C(=O)NC(CCC(=O)NC(CCCC(N)C(=O)O)C(=O)NCC(=O)O)C(=O)O` (centres undefined)?
Answer: Ratio [1]: 1.9; K [2]: 0.029; Survival [3]: 6; Suppression [13]: 0; Ratio [4]: 1.5; Skin response [5]: 8.2; Survival [6]: 7; K [7]: 0.038; Skin response [9]: 10

Reference: ChEMBL document CHEMBL1122029, “N2-(gamma-D-Glutamyl)-meso-2(L),2'(D)-diaminopimelic acid as the minimal prerequisite structure of FK-156: its acyl derivatives with potent immunostimulating activity” (1982)
